Data taken from patent US4963363A, “Phospholipid delivery vehicle for aqueous-insoluble active ingredients” (priority 1989, dated 1990).
Where a name gives a salt, the structure may show the parent alone. Values belong to the compound of their own block, whether it stands above or below them.

Columns and labels:
humans = details: in vivo, iv; cited from earlier work
[1] = Solubility of HXM in pure triglycerides; type: physicochemical; details: organic solvent or mixture
[2] = cited from earlier work
[3] = Compatibility of lipid triglycerides with HXM solubilization and phospholipid emulsion

Structure (SMILES): CN(C)c1nc(N(C)C)nc(N(C)C)n1 [Gentisate salt of HXM]
local irritation (humans): severe local irritation

solubility [1]: > 50000 µg/mL
Structure (SMILES): CN(C)c1nc(N(C)C)nc(N(C)C)n1 [HXM, 2,4,6-Tris(dimethylamino)-s-triazine]
solubility of the free drug in saline solution ([2]; saline solution, Wickes et al. 1985): 70 µg/mL
solubility of the free drug in water ([2]; water, Ames et al. 1982): 200 µg/mL

Structure (SMILES): CCCCCCCC/C=C\CCCCCCCC(=O)OCC(COC(=O)CCCCCCC/C=C\CCCCCCCC)OC(=O)CCCCCCC/C=C\CCCCCCCC [triolein]
ability of triglyceride to solubilize HXM [3]: ineffective at solubilizing HXM
